Data reported in publication PMC10541198, “Specific quinone reductase 2 inhibitors reduce metabolic burden and reverse Alzheimer’s disease phenotype in mice” (The Journal of Clinical Investigation, 2023).
Where “and” joins values, the source holds several entries; their conditions need not be identical. Equal values may be shown once. Entries after “also recorded” stand apart in the source; their conditions may differ.

How the values were obtained:
[1] = Drinking rate during chronic ingestion; assay type: in vivo, mouse; design: Sup. Fig. 5-2B, drinking rate: unit: ml/g/day
Procedure: Supplementary Figure 6. Chronic Drinking of 50 mg/kg YB -537 for of 1 Month Causes no Changes
in General Mouse Physiology or Behavior but Improves Nesting Behavior Over Time.
(A) Weight of male and female, 8–9- month-old 5xFAD mice over the course of 25 days while consuming
(B) Drinking rate of water or YB-537 in the cages of the 5xFAD mice. […]

[2] = tested on: 5xFAD mice; experiment: Nesting in 5xFAD mice; assay type: in vivo, mouse; design: key to Sup. Fig. 5-2J, nesting: nesting score on a scale of 1 to 5
Procedure: Each home cage was given six identical portions of cotton wool tubes and 24 h later the nest made was photographed from above. The images were gi ven the names of the respective cages, whi ch were coded […]
(see ‘Blinding Measures for Animal Experiments’ section), and were analyzed by an experimenter that was blind to the conditions, groups and cage codes. […]
Analysis of the images was done blind, by an experimenter unaware of the experimental conditions or details, using Imaris (Bitplane) software. Surface reconstruction module was used to extract the data as volumes and / or si gnal intensities of the used markers (4-HNE, phospho- t au, amyloid β and Iba 1) .

[3] = Solubility in water / saline; assay type: physicochemical
[4] = tested on: CD73; experiment: Immunoblot of CD73 in HCT116 cells after 4-day treatment; assay type: cell-based, human; settings: 2 μM, 4 days
Procedure: To establish direct target engagement and cell membrane permeability, a cellular thermal shift assay (CETSA) was carried out, using leading QR2is YB’s-537, 800, and 808. Following a 1 hour preincubation with 5 μM of the QR2is or vehicle, thermal aggregation curves (Taggs) of QR2 expressed in HEK293T were measured in increasing temperatures. All QR2is increased QR2 thermal stability compared with vehicle (Supplemental Figure 2A). Based on the Tagg curves we selected 73°C for isothermal dose-response fingerprint (IDTRF) experiments (Supplemental Figure 2B). The ITDRF allowed the relative quantification of the binding of each of the QR2is to QR2, measured as the EC50 (Figure 3A). […] We evaluated the safety of the QR2is using cell toxicity and viability assays. […] Cell viability was assessed by XTT assay in HEK239T cells, using a dose response, with 3- or 24-hour incubations of the leading QR2is. […] We then assessed WT HCT116 cells by immunoblot (Supplemental Figure 2, C and D), after being treated with YB-800 (2 μM) for 4 consecutive days. […]
The cells wer e har ves t ed a nd resuspended in 1% cl ear m e di um ( DM EM – with no phenol red, suppl em ent ed with 1% FBS, 1% L-Glutamine and 1% Penicillin-Streptomycin). […] The plate wa s then incubated in the dark at 37°C f or 3 h, before reading in a Tecan M200 Pro florescence microplate reader, using wavelengths Ex/Em = 485 nm / 535 nm . […]

SMILES	average drinking rate ([1]; 5xFAD females) [mL/g/day]	average drinking rate ([1]; 5xFAD males) [mL/g/day]	Sup. Fig. 5-2B, drinking rate ([1]; Female)	Sup. Fig. 5-2B, drinking rate ([1]; Male)	Nest quality ([2]; 5xFAD 1 month, regardless of sex (Pearson r))	Sup. Fig. 5-2J, nesting ([2]; Females, Day 0)	Sup. Fig. 5-2J, nesting ([2]; Females, Day 7)	Sup. Fig. 5-2J, nesting ([2]; Females, Day 14)	Sup. Fig. 5-2J, nesting ([2]; Females, Day 21)	Sup. Fig. 5-2J, nesting ([2]; Males + Females, Day 0)	Sup. Fig. 5-2J, nesting ([2]; Males + Females, Day 7)	Sup. Fig. 5-2J, nesting ([2]; Males + Females, Day 14)	Sup. Fig. 5-2J, nesting ([2]; Males + Females, Day 21)	Sup. Fig. 5-2J, nesting ([2]; Males, Day 0)	Sup. Fig. 5-2J, nesting ([2]; Males, Day 7)	Sup. Fig. 5-2J, nesting ([2]; Males, Day 14)	Sup. Fig. 5-2J, nesting ([2]; Males, Day 21)	solubility in water [3]	solubility in saline vehicle ([3]; PK formulations 2 and 10 mg/ml, HCl salt)	CD73 expression (replicates) [4]
Cc1ccc(-c2cn3cccc(C)c3n2)cc1S(=O)(=O)N1CCNCC1 [YB-537]	0.170 ± 0.011	0.170 ± 0.035	0.159 and 0.182	0.207 and 0.135	significantly correlated to time under treatment	2 and 3	3 and 4	4	5 and 4	3 and 2	4 and 3	4 and 3	5 and 4	2 and 3	3 and 4	4 and 3	4 and 5	complete solution; also recorded: water soluble	fully dissolved	–
Cc1ccc(-c2cn3cccc(C)c3n2)cc1S(=O)(=O)N1CCC(C)CC1 [YB-800]	–	–	–	–	–	–	–	–	–	–	–	–	–	–	–	–	–	–	–	1.393 and 1.4862 and 1.532 and 1.811 and 1.4595 and 1.188
